Consider 3 sequences from patent US12247320B2, “Multivalent glycopeptides that tightly bind to carbohydrate-binding monoclonal antibody family PGT128” (BRANDEIS UNIVERSITY, priority 2018, dated 2025).

As a reminder, the Kd is the constant that tells how readily two partners part at equilibrium. A high value points to a looser complex.

Series [1] deals with PGT128. Put plainly: Binding of radiolabeled, cyclized, glycosylated peptides to PGT128 (Protein G bead capture, scintillation counting). The settings on record: for Kd: after affinity purification with 100 nM PGT128. The method, then:
Radioactive Peptides. For binding analysis, translation (50 μL) was carried out in the presence of PDF/MAP and ^3H-histidine for radiolabeling. The crude peptides were purified by Ni-NTA agarose or, if the sequence contained two cysteine residues, was cyclized while captured on the Ni-NTA resin. The peptide eluents were combined and dialyzed as follows. To the combined eluents was added a solution of Triton X-100 in water for a final concentration of 0.1%. Then, the peptides were dialyzed against 0.1% (v/v) Triton X-100 using a Slide-A-Lyzer™ MINI device (0.1 mL capacity, 3.5 kDa MWCO) (ThermoScientific) at room temperature overnight. The dialyzed peptides were retrieved from the devices, transferring to 0.5 mL centrifuge tubes. The peptide solutions were concentrated to dryness by speedvac for the click reaction.
Sequences were screened for their binding to PGT128 as follows. Each glycosylated peptide (20 fmol) was incubated with either 0 nM or 100 nM PGT128, diluted to 20 μL with 1× selection buffer, tumbling for 1 hour at room temperature. While tumbling, Dynabeads™ Protein G (Invitrogen) were equilibrated with 1× selection buffer as follows. Steps were carried out using a multi-channel pipettor where possible. For each sequence, 5 μL of Protein G bead suspension was transferred to a 0.2 mL PCR tube in a strip. Then, 40 μL of 1× selection buffer was added to the beads. The mixture was resuspended by gently vortexing, spun down briefly, and placed on a magnet for 1 minute. The supernatant was removed, and this wash was repeated two more times. The final supernatant was removed just prior to addition of the incubated peptide/antibody mixture. The mixture was allowed to tumble at room temperature for 30 minutes to capture antibodies and bound peptides. Then, the suspension was briefly spun down, placed on a magnet, and the supernatant was transferred to an individual 0.2 mL PCR tube. To wash the beads, 20 μL of 1× selection buffer was added, gently vortexed, spun down briefly, placed on a magnet for 1 minute, and the wash was transferred to the same PCR tube as the supernatant. This wash step was repeated twice more for a total of three washes, saved altogether with the supernatant as the “unbound” fraction. The beads were then resuspended in 40 μL of denaturing elute buffer. The suspension was heated at 95° C. for 5 minutes to denature antibodies, spun down briefly, placed on a magnet for 1 minute, and the eluent was transferred to an individual 0.2 mL PCR tube. The beads were washed with 40 μL of denaturing elute buffer, and the wash was placed into the same tube as the eluent. The combined eluent and wash represented the “bound” fraction. The beads were resuspended in 40 μL of denaturing elute buffer, vortexed, and directly placed into a vial with liquid scintillation cocktail for radioactivity measurements, though it was not included in calculations of fraction bound. Each of the tubes with the “unbound” and “bound” fractions were placed into vials for LSC. The tube in which the antibody and peptides were incubated were also measured by LSC, but not included in calculations of fraction bound.
Cyclized and glycosylated peptides 91-8 (SEQ ID NO:74) and 91-12 (SEQ ID NO:76) (Heavily Biased library) were subject to PGT128 affinity purification. The sequences (0.3 μmol) were each incubated with 100 nM PGT128, diluted to 40 μL with 1× selection buffer, tumbling for 1 hour at room temperature. The antibody/peptide complexes were captured on equilibrated Protein G (10 μL) and washed as described previously. The bound fraction was then eluted as follows. The beads were resuspended in 10 μL of 1× selection buffer and heated at 70° C. for 30 minutes. Then, the suspension was chilled on ice for 5 minutes, and tumbled at room temperature for 10 minutes. The eluent was separated, and the beads were washed with 10 μL of 1× selection buffer. The wash was combined with the eluent as the “bound” fraction. […]

A short description of series [2]: Solubility seen during reduction and cyclization of the synthetic peptide. The settings on record: reduced peptide in 200 mM NH4HCO3 with 10 mM TCEP, not glycosylated. It counts as physicochemical. The method, then: Then, 9 mg of crude peptide was reduced and cyclized as follows. Each peptide (1 mM final concentration) was dissolved in 200 mM NH4HCO3 with 10 mM TCEP for a reaction volume of 1332 μL. The reactions were tumbled at room temperature for 50 minutes. At that time, the reactions were buffer-exchanged to remove excess TCEP. […] The pellet was washed six times with 1 mL portions of 200 mM NH4HCO3. Portions of the H-22 reaction were transferred to Centricon-500 spin columns (MWCO 2 kDa) with 300 μL of 200 mM NH4HCO3. The filters were spun down and washed six times with 300 μL of 200 mM NH4HCO3. The solutions were then diluted to 1322 μL with 200 mM NH4HCO3, 5.95 mL of water, and 5.68 mL of MeCN in a 15 mL conical tube. Then, 529 μL of a solution of 5 mM m-dibromoxylene in MeCN was added, for a final concentration of 0.2 mM of m-dibromoxylene and 0.1 mM peptide. The cyclization reactions were tumbled at room temperature and monitored by LC-MS. After 40 minutes, H22 was complete. At that time, 132 μL of 5 mM m-dibromoxylene in MeCN was added to the H-1 reaction to push it to completion (total reaction time: 140 minutes). The reactions were quenched by lowering the pH with formic acid. The solutions were concentrated under reduced pressure and lyophilized overnight.

The mark [3] stands for this setting: before PGT128 affinity purification.
Setting [4] is: following PGT128 affinity purification.

In series [1], “XYPNTLNNVYQKCNKYNVIGDIRXARCXHXEHFSSQDQPKSKHKRRYKGF [91-12cy]” gave a Kd of 7.41 ± 1.29 nM. For the same sequence, the maximum fraction bound in series [1] (setting [3]) is 54%; in series [1] (setting [4]) it was 74%.
Turning to “YTEKHNGIGDIRPAICXNSKNQNHRCNHYQIKLYIHXLXRLPHNYRNS [H-1, Top round 12 PGT128 cluster, Heavily Biased library; made by SPPS with C-terminal biotinyl-lysine]”, the solubility entry in series [2] is “poor solubility”.
“MAHYSXNHXRHPLYPSVNHRXSYPRIGLLSRIGDIRSASCXLRCFRXRST [91-8cy]” had a Kd in series [1] of 2.73 ± 0.36 nM. The figures for the maximum fraction bound in series [1] (setting [3]) and in series [1] (setting [4]) were 69% and 85%, respectively.
